Assay results reported in patent US9963464B2, “Macrocyclic compounds” (Bayer Pharma Aktiengesellschaft, priority 2014, dated 2018).
Like-named read-outs stand apart in the source and are kept apart here.

What was measured:
DU145 cells = assay: Proliferation assay DU145; assay type: cell-based, human; conditions: 4 days, crystal violet, read-out: Inhibition of DU145 cell proliferation IC50
Description: (§1) Cultivated tumour cells (HeLa, human cervical tumour cells, ATCC CCL-2; NCI-H460, human non-small cell lung carcinoma cells, ATCC HTB-177; A2780, human ovarian carcinoma cells, ECACC #93112519; DU 145, hormone-independent human prostate carcinoma cells, ATCC HTB-81; HeLa-MaTu-ADR, multidrug-resistant human cervical carcinoma cells, EPO-GmbH Berlin; Caco-2, human colorectal carcinoma cells, ATCC HTB-37; B16F10, mouse melanoma cells, ATCC CRL-6475) were plated at a density of 5,000 cells/well (DU145, HeLa-MaTu-ADR), 3,000 cells/well (NCI-H460, HeLa), 2,500 cells/well (A2780), 1,500 cells/well (Caco-2), or 1,000 cells/well (B16F10) in a 96-well multititer plate in 200 μL of their respective growth medium supplemented 10% fetal calf serum. After 24 hours, the cells of one plate (zero-point plate) were stained with crystal violet (see below), while the medium of the other plates was replaced by fresh culture medium (200 μl), to which the test substances were added in various concentrations (0 μM, as well as in the range of 0.001-10 μM). The cells were incubated for 4 days in the presence of test substances. Cell proliferation was determined by staining the cells with crystal violet: the cells were fixed by adding 20 μl/measuring point of an 11% glutaric aldehyde solution for 15 minutes at room temperature. After three washing cycles of the fixed cells with water, the plates were dried at room temperature. The cells were stained by adding 100 μl/measuring point of a 0.1% crystal violet solution (pH 3.0). After three washing cycles of the stained cells with water, the plates were dried at room temperature. The dye was dissolved by adding 100 μl/measuring point of a 10% acetic acid solution. The extinction was determined by photometry at a wavelength of 595 nm. The change of cell number, in percent, was calculated by normalization of the measured values to the extinction values of the zero-point plate (=0%) and the extinction of the untreated (0 μm) cells (=100%). The IC50 values (inhibitory concentration at 50% of maximal effect) were determined by means of a 4 parameter fit. Non-adherent MOLM-13 human acute myeloid leukemia cells (DSMZ ACC 554) were seeded at a density of 5,000 cells/well in a 96-well multititer plate in 100 μL of growth medium supplemented 10% fetal calf serum. After 24 hours, cell viability of one plate (zero-point plate) was determined with the Cell Titre-Glo Luminescent Cell Viability Assay (Promega), while 50 μL of test compound containing medium was added to the wells of the other plates (final concentrations in the range of 0.001-1 μM and DMSO controls). Cell viability was assessed after 72-hour exposure with the Cell Titre-Glo Luminescent Cell Viability Assay (Promega). IC50 values (inhibitory concentration at 50% of maximal effect) were determined by means of a 4 parameter fit on measurement data which were normalized to vehicle (DMSO) treated cells (=100%) and measurement readings taken immediately before compound exposure (=0%).

CDK9/CycT1 = target: T1, CDK9/CycT1 (Homo sapiens, UniProt P50750); assay: CDK9/CycT1 high ATP kinase assay (TR-FRET, Method 1b); assay type: biochemical; conditions: for IC50: Method 1b, 2 mM ATP; for Selectivity high ATP CDK9 over high ATP CDK2: IC50 (high ATP CDK2)/IC50 (high ATP CDK9): Methods 1b and 2b, minimal values where CDK9 IC50 is at the assay limit
T1 construct: Recombinant full-length His-tagged human CDK9 and CycT1; His; purchased Invitrogen PV4131; host or cells: insect cells
Description: 1b. CDK9/CycT1 High ATP Kinase Assay
CDK9/CycT1-inhibitory activity of compounds of the present invention at a high ATP concentration after preincubation of enzyme and test compounds was quantified employing the CDK9/CycT1 TR-FRET assay as described in the following paragraphs.
Recombinant full-length His-tagged human CDK9 and CycT1, expressed in insect cells and purified by Ni-NTA affinity chromatography, were purchase from Invitrogen (Cat. No PV4131). As substrate for the kinase reaction biotinylated peptide biotin-Ttds-YISPLKSPYKISEG (C-terminus in amid form) was used which can be purchased e.g. from the company JERINI peptide technologies (Berlin, Germany). For the assay 50 nl of a 100 fold concentrated solution of the test compound in DMSO was pipetted into a black low volume 384 well microtiter plate (Greiner Bio-One, Frickenhausen, Germany), 2 μl of a solution of CDK9/CycT1 in aqueous assay buffer [50 mM Tris/HCl pH 8.0, 10 mM MgCl2, 1.0 mM dithiothreitol, 0.1 mM sodium ortho-vanadate, 0.01% (v/v) Nonidet-P40 (Sigma)] were added and the mixture was incubated for 15 min at 22° C. to allow pre-binding of the test compounds to the enzyme before the start of the kinase reaction. […] The concentration of CDK9/CycT1 was adjusted depending of the activity of the enzyme lot and was chosen appropriate to have the assay in the linear range, typical concentrations were in the range of 0.5 μg/mL. The reaction was stopped by the addition of 5 μl of a solution of TR-FRET detection reagents (0.2 μM streptavidine-XL665 [Cisbio Bioassays, Codolet, France] and 1 nM anti-RB(pSer807/pSer811)-antibody from BD Pharmingen [#558389] and 1.2 nM LANCE EU-W1024 labeled anti-mouse IgG antibody [Perkin-Elmer, product no. AD0077]) in an aqueous EDTA-solution (100 mM EDTA, 0.2% (w/v) bovine serum albumin in 100 mM HEPES pH 7.5).
The resulting mixture was incubated 1 h at 22° C. to allow the formation of complex between the phosphorylated biotinylated peptide and the detection reagents. Subsequently the amount of phosphorylated substrate was evaluated by measurement of the resonance energy transfer from the Eu-chelate to the streptavidine-XL. Therefore, the fluorescence emissions at 620 nm and 665 nm after excitation at 350 nm was measured in a HTRF reader, e.g. a Rubystar (BMG Labtechnologies, Offenburg, Germany) or a Viewlux (Perkin-Elmer). The ratio of the emissions at 665 nm and at […] was taken as the measure for the amount of phosphorylated substrate. The data were normalised (enzyme reaction without inhibitor=0% inhibition, all other assay components but no enzyme=100% inhibition).

HeLa-MaTu-ADR cells = assay: Proliferation assay HeLa-MaTu-ADR; assay type: cell-based, human; conditions: 4 days, crystal violet, read-out: Inhibition of HeLa-MaTu-ADR cell proliferation IC50
Description: as §1

NCI-H460 cells = assay: Proliferation assay NCI-H460; assay type: cell-based, human; conditions: 4 days, crystal violet, read-out: Inhibition of NCI-H460 cell proliferation IC50
Description: as §1

Caco-2 cells = assay: Proliferation assay Caco-2; assay type: cell-based, human; conditions: 4 days, crystal violet, read-out: Inhibition of Caco-2 cell proliferation IC50
Description: as §1

T1 sequence (P50750 whole entry): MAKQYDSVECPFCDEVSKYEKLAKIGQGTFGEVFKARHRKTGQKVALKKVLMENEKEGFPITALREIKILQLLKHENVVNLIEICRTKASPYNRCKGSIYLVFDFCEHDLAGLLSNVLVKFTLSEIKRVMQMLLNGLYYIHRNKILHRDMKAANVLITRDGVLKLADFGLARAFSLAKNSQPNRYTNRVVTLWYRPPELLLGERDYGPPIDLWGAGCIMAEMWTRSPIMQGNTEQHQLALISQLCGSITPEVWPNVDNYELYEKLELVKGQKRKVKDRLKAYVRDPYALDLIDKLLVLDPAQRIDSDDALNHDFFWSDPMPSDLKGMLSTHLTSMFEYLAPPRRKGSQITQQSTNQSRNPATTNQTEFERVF
T1 sequence (O60563 whole entry partner): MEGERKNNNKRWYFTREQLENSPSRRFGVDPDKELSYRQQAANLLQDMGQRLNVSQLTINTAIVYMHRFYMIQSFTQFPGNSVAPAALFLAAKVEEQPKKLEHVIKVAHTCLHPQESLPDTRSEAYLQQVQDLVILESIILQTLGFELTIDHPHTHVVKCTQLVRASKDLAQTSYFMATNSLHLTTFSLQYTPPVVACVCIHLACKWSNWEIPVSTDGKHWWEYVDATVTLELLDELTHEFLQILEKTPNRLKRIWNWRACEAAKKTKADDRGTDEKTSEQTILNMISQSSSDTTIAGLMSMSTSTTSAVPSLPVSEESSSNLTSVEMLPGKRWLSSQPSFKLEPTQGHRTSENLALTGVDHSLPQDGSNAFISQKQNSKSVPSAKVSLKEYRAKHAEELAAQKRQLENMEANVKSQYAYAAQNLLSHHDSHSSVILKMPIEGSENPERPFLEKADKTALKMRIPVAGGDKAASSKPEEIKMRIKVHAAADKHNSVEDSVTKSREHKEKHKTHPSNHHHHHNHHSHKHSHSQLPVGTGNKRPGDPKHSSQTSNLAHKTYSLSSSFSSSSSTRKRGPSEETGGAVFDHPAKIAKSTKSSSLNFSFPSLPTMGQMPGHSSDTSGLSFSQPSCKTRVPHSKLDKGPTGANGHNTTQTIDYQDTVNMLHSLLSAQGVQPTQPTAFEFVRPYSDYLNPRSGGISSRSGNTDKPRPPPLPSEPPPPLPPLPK

| IC50 (DU145 cells; Homo sapiens, DU-145, 96 h) [µM] | IC50 (CDK9/CycT1) [µM] | Selectivity high ATP CDK9 over high ATP CDK2: IC50 (high ATP CDK2)/IC50 (high ATP CDK9) (CDK9/CycT1) | IC50 (HeLa-MaTu-ADR cells; Homo sapiens, 96 h) [µM] | IC50 (NCI-H460 cells; Homo sapiens, NCI-H460, 96 h) [µM] | IC50 (Caco-2 cells; Homo sapiens, Caco-2, 96 h) [µM] | IC50 (DU145 cells; trifluoroacetate) [µM] | IC50 (HeLa-MaTu-ADR cells; trifluoroacetate) [µM] | IC50 (NCI-H460 cells; trifluoroacetate) [µM] | IC50 (Caco-2 cells; trifluoroacetate) [µM] | Compound | IC50 (DU145 cells) [µM] | IC50 (HeLa-MaTu-ADR cells) [µM] | IC50 (NCI-H460 cells) [µM] | IC50 (Caco-2 cells) [µM] |
| --- | --- | --- | --- | --- | --- | --- | --- | --- | --- | --- | --- | --- | --- | --- |
| 0.026 | 0.0029 | 21.7 | 0.01 | 0.027 | 0.014 | – | – | – | – | CC(=O)N=S(C)(=O)Cc1cc2nc(c1)OCCCOc1cc(F)ccc1-c1cc(ncc1F)N2 (racemic) [Example 18, (rac)-N-[{[15,19-difluoro-3,4-dihydro-2H,11H-10,6-(azeno)-12,16-(metheno)-1,5,11,13-benzodioxadiazacyclooctadecin-8-yl]methyl}(methyl)oxido-λ^6-sulfanylidene]acetamide] | – | – | – | – |
| 0.031 | 0.0059 | 12.7 | 0.015 | 0.028 | 0.016 | – | – | – | – | CS(=O)(Cc1cc2nc(c1)OCCCOc1cc(F)ccc1-c1cc(ncc1F)N2)=NC(=O)OCCCl (racemic) [Example 21, (rac)-2-chloroethyl [{[15,19-difluoro-3,4-dihydro-2H,11H-10,6-(azeno)-12,16-(metheno)-1,5,11,13-benzodioxadiazacyclooctadecin-8-yl]methyl}(methyl)oxido-λ^6-sulfanylidene]carbamate] | – | – | – | – |
| 0.123 | 0.003 | 6.1 | 0.032 | 0.109 | 0.047 | – | – | – | – | CS(=O)(Cc1cc2nc(c1)OCCCOc1cc(F)ccc1-c1cc(ncc1F)N2)=NC(=O)OCCN (racemic) [Example 25, (rac)-2-aminoethyl [{[15,19-difluoro-3,4-dihydro-2H,11H-10,6-(azeno)-12,16-(metheno)-1,5,11,13-benzodioxadiazacyclooctadecin-8-yl]methyl}(methyl)oxido-λ^6-sulfanylidene]carbamate] | – | – | – | – |
| – | 0.0018 | 90.4 | – | – | – | 0.387 | 0.21 | 0.391 | 0.267 | CS(=O)(Cc1cc2nc(c1)OCCCOc1cc(F)ccc1-c1cc(ncc1F)N2)=NS(=O)(=O)CCN.O=C(O)C(F)(F)F (racemic) [Example 24, (rac)-2-{[{[15,19-difluoro-3,4-dihydro-2H,11H-10,6-(azeno)-12,16-(metheno)-1,5,11,13-benzodioxadiazacyclooctadecin-8-yl]methyl}(methyl)oxido-λ^6-sulfanylidene]sulfamoyl}ethanaminium trifluoroacetate] | – | – | – | – |
| 0.078 | 0.0019 | 81.7 | 0.038 | 0.049 | 0.033 | – | – | – | – | CN=S(C)(=O)Cc1cc2nc(c1)OCCCOc1cc(F)ccc1-c1cc(ncc1F)N2 (racemic) [Example 19, (rac)-8-[(N,S-dimethylsulfonimidoyl)methyl]-15,19-difluoro-3,4-dihydro-2H,11H-10,6-(azeno)-12,16-(metheno)-1,5,11,13-benzodioxadiazacyclooctadecine] | – | – | – | – |
| – | 0.0039 | 69.5 | 0.396 | 0.741 | 0.422 | – | – | – | – | CS(=O)(Cc1cc2nc(c1)OCCCOc1cc(F)ccc1-c1cc(ncc1F)N2)=NS(=O)(=O)CCN (racemic) [Example 23, (rac)-2-amino-N-[{[15,19-difluoro-3,4-dihydro-2H,11H-10,6-(azeno)-12,16-(metheno)-1,5,11,13-benzodioxadiazacyclooctadecin-8-yl]methyl}(methyl)oxido-λ^6-sulfanylidene]ethanesulfonamide] | 0.833 | – | – | – |
| 0.036 | 0.0027 | 13.5 | 0.025 | 0.031 | 0.021 | – | – | – | – | CCNC(=O)N=S(C)(=O)Cc1cc2nc(c1)OCCCOc1cc(F)ccc1-c1cc(ncc1F)N2 (racemic) [Example 17, (rac)-1-[{[15,19-difluoro-3,4-dihydro-2H,11H-10,6-(azeno)-12,16-(metheno)-1,5,11,13-benzodioxadiazacyclooctadecin-8-yl]methyl}(methyl)oxido-λ^6-sulfanylidene]-3-ethylurea] | – | – | – | – |
| – | 0.065 | >307 | – | – | 0.811 | – | – | – | – | CSCc1cc2nc(c1)OCCOc1cc(F)ccc1-c1cc(ncc1F)N2 [Example 9, 14,18-Difluoro-7-[(methylsulfanyl)methyl]-2,3-dihydro-10H-9,5-(azeno)-11,15-(metheno)-1,4,10,12-benzodioxadiazacycloheptadecine] | – | – | – | – |

| Compound | IC50 (DU145 cells; Homo sapiens, DU-145, 96 h) [µM] | IC50 (CDK9/CycT1) [µM] | Selectivity high ATP CDK9 over high ATP CDK2: IC50 (high ATP CDK2)/IC50 (high ATP CDK9) (CDK9/CycT1) | IC50 (HeLa-MaTu-ADR cells; Homo sapiens, 96 h) [µM] | IC50 (NCI-H460 cells; Homo sapiens, NCI-H460, 96 h) [µM] | IC50 (Caco-2 cells; Homo sapiens, Caco-2, 96 h) [µM] | IC50 (DU145 cells; trifluoroacetate) [µM] | IC50 (HeLa-MaTu-ADR cells; trifluoroacetate) [µM] | IC50 (NCI-H460 cells; trifluoroacetate) [µM] | IC50 (Caco-2 cells; trifluoroacetate) [µM] | IC50 (DU145 cells) [µM] | IC50 (HeLa-MaTu-ADR cells) [µM] | IC50 (NCI-H460 cells) [µM] | IC50 (Caco-2 cells) [µM] |
| --- | --- | --- | --- | --- | --- | --- | --- | --- | --- | --- | --- | --- | --- | --- |
| ({[15,19-difluoro-3,4-dihydro-2H,11H-10,6-(azeno)-12,16-(metheno)-1,5,11,13-benzodioxadiazacyclooctadecin-8-yl]methyl}sulfonyl)acetic acid [Example 27] | – | 0.0017 | 3.7 | – | – | – | – | – | – | – | 3.36 | 1.28 | 3.04 | 2.1 |
